Laboratory results from US10226451B2, “Substituted bicyclic compounds as bromodomain inhibitors” (ZENITH EPIGENETICS LTD, priority 2013, dated 2019).
pIC50: −log10 of the molar value.

Legend:
[1] = target: T1, Brd4 bromodomain 1 (BRD4(1)) (Homo sapiens, UniProt O60885); assay: Inhibition of tetra-acetylated histone H4 binding to Brd4 bromodomain 1 (HTRF/FRET); settings: tetra-acetylated histone H4 peptide, His-tagged bromodomain 200 nM, 2 h
T1 construct: made in house; host or cells: E. coli BL21(DE3)
Method in brief: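 Inhibition was read as a drop in 665 nm relative to 620 nm HTRF signal after 2 h at room temperature, with IC50 from dose-response curves in duplicate wells. Reactions held 200 nM E. coli-expressed His-tagged bromodomain and 25-50 nM biotinylated tetra-acetylated histone H4 peptide. Buffer was 30 mM HEPES pH 7.4 with KF, CHAPS, BSA and 0.2% DMSO.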

[2] = system: c-myc in Human AML MV4-11 cells; assay: Inhibition of c-MYC expression (mRNA, real-time PCR) in MV4-11 cells; type: cell-based; settings: 3 h, mRNA by real-time PCR
Method in brief: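 Cells at 2.5×10^4 per well in IMDM/10% FBS were treated with rising compound concentrations or 0.1% DMSO for 3 h at 37° C., in triplicate. cMYC mRNA was measured by one-step TaqMan qRT-PCR, normalised to cyclophilin, and expressed as fold expression relative to control.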

[3] = system: Human AML MV-4-11 cells; assay: Inhibition of cell proliferation in MV4-11 cells (CellTiter Aqueous One); type: cell-based; settings: 72 h
Method in brief: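 MV4-11 cells at 5×10^4/well in IMDM with 10% FBS were exposed to increasing compound concentrations or 0.1% DMSO, in triplicate, for 72 h at 37 °C. A further 3-4 h with CellTiter Aqueous One reagent followed. A490, blank-corrected and expressed relative to DMSO, gave IC50.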

[4] = system: hIL-6 mRNA in U937 cells; assay: Inhibition of hIL-6 mRNA transcription in LPS-stimulated U937 cells; type: cell-based; settings: Homo sapiens, U-937, PMA-differentiated U937 cells, LPS 1 ug/mL, 3 h, read-out: IL-6 activity
Protocol: In this example, hIL-6 mRNA in tissue culture cells were quantitated to measure the transcriptional inhibition of hIL-6 when treated with a compound of the present disclosure.
Human leukemic monocyte lymphoma U937 cells (CRL-1593.2) were plated at a density of 3.2×10^4 cells per well in a 96-well plate in 100 μL RPMI-1640 containing 10% FBS and penicillin/streptomycin, and differentiated into macrophages for 3 days in 60 ng/mL PMA ([…]) at 37° C. in 5% CO2 prior to the addition of compound. The cells were pretreated for 1 h with increasing concentrations of test compound in 0.1% DMSO prior to stimulation with 1 ug/mL lipopolysaccharide from Escherichia coli. Triplicate wells were used for each concentration. The cells were incubated at 37° C., 5% CO2 for 3 h before the cells were harvested. At time of harvest, media was removed and cells were rinsed in 200 μL PBS. Cells were harvested using the mRNA Catcher PLUS kit according to manufacturer's instructions. The eluted mRNA was then used in a one-step quantitative real-time PCR reaction using components of the RNA UltraSense™ One-Step Kit (Life Technologies) together with Applied Biosystems TaqMan® primer-probes for hIL-6 and Cyclophilin. Real-time PCR plates were run on a ViiA™7 real time PCR machine (Applied Biosystems), data was analyzed, normalizing the Ct values for hIL-6 to an internal control, prior to determining the fold expression of each sample, relative to the control.

[5] = system: hIL-17 mRNA in human peripheral blood mononuclear cells; assay: Inhibition of hIL-17 mRNA transcription in OKT3-stimulated PBMC; type: cell-based; settings: OKT3 antibody, 6 h, read-out: IL-17 activity
Protocol: In this example, hIL-17 mRNA in human peripheral blood mononuclear cells were quantitated to measure the transcriptional inhibition of hIL-17 when treated with a compound of the present disclosure.
Human peripheral blood mononuclear cells were plated (2.0×10^5 cells per well) in a 96-well plate in 45 μL OpTimizer T Cell expansion media (Life Technologies) containing 20 ng/ml IL-2 and penicillin/streptomycin. The cells were treated with increasing concentrations of the test compound or DMSO (0.1%), and incubated at 37° C., 5% CO2 for 1 h before addition of 10× stock OKT3 antibody at 10 ug/ml in media. Triplicate wells were used for each concentration. Cells were incubated at 37° C., 5% CO2 for 6 h before the cells were harvested. At time of harvest, cells were pelleted by centrifugation at 800 rpm for 5 min. Cells were harvested using the mRNA Catcher PLUS kit according to manufacturer's instructions. The eluted mRNA was then used in a one-step quantitative real-time PCR reaction, using components of the RNA UltraSense™ One-Step Kit (Life Technologies) together with Applied Biosystems TaqMan® primer-probes for hIL-17 and Cyclophilin. Real-time PCR plates were run on a ViiA™7 real time PCR machine (Applied Biosystems), data was analyzed, normalizing the Ct values for hIL-17 to an internal control, prior to determining the fold induction of each unknown sample, relative to the control.

[6] = system: hApoA-I mRNA in Huh7 cells; assay: Up-regulation of hApoA-1 mRNA transcription in Huh7 cells; type: cell-based, Human; settings: EC170, Huh7 cells, 48 h
Protocol: In this example, hApoA-I mRNA in tissue culture cells was quantitated to measure the transcriptional up-regulation of hApoA-I when treated with a compound of the present disclosure.
Huh7 cells (2.5×10^5 per well) were plated in a 96-well plate using 100 μL DMEM per well, (Gibco DMEM supplemented with penicillin/streptomycin and 10% FBS), 72 h before the addition of the compound. The cells are treated with increasing concentrations of the compound or DMSO (0.1%), and incubated at 37° C., 5% CO2 for 48 h. Spent media was removed from the Huh-7 cells and placed on ice for immediate use with the “LDH cytotoxicity assay Kit II” from Abcam. The cells remaining in the plate were rinsed with 100 μL PBS. Cells were harvested using the mRNA Catcher PLUS kit according to manufacturer's instructions. The eluted mRNA was then used in a one-step quantitative real-time PCR reaction, using components of the RNA UltraSense™ One-Step Kit (Life Technologies) together with Applied Biosystems TaqMan® primer-probes for hApoA-I and Cyclophilin. Real-time PCR plates were run on a ViiA™7 real time PCR machine (Applied Biosystems), data was analyzed, normalizing the Ct values for hApoA-1 to an internal control, prior to determining the fold induction of each unknown sample, relative to the control.

pIC50 [1]	pIC50 [2]	pIC50 [3]	pIC50 [4]	pIC50 [5]	SMILES	ApoA-1 activity [6]
≥ 6.52	5.52 to 6.52	≥ 6.52	≥ 6.52	≥ 6.52	Cc1noc(C)c1-c1cc(-c2c(C)noc2C)c2[nH]c(=O)[nH]c2c1 [Example Compound 1, 4,6-bis(3,5-dimethylisoxazol-4-yl)-1H-benzo[d]imidazol-2(3H)-one]	+++ (EC170 value less than or equal to 0.3 μM were deemed to be highly active (+++))
≥ 6.52	≥ 6.52	5.52 to 6.52	≥ 6.52	5.52 to 6.52	Cc1ncccc1-c1cc(-c2c(C)noc2C)cc2[nH]c(=O)n(C)c12 [Example Compound 4, 5-(3,5-dimethylisoxazol-4-yl)-1-methyl-7-(2-methylpyridin-3-yl)-1H-benzo[d]imidazol-2(3H)-one]	+++ (EC170 value less than or equal to 0.3 μM were deemed to be highly active (+++))
≥ 6.52	≥ 6.52	≥ 6.52	≥ 6.52	5.52 to 6.52	Cc1nn(C)cc1-c1cc(-c2c(C)noc2C)cc2[nH]c(=O)n(C)c12 [Example Compound 7, 7-(1,3-dimethyl-1H-pyrazol-4-yl)-5-(3,5-dimethylisoxazol-4-yl)-1-methyl-1H-benzo[d]imidazol-2(3H)-one]	+++ (EC170 value less than or equal to 0.3 μM were deemed to be highly active (+++))
≥ 6.52	≥ 6.52	5.52 to 6.52	5.52 to 6.52	5.52 to 6.52	COc1ncccc1-c1cc(-c2c(C)noc2C)cc2[nH]c(=O)n(C)c12 [Example Compound 13, 5-(3,5-dimethylisoxazol-4-yl)-7-(2-methoxypyridin-3-yl)-1-methyl-1H-benzo[d]imidazol-2(3H)-one]	+++ (EC170 value less than or equal to 0.3 μM were deemed to be highly active (+++))
